Entries after “also recorded” stand apart in the source; their conditions may differ.
Tests used:
[1] = system: RT2 rat astrocytoma cell line; assay: Cytotoxicity and proliferation assays using CCK8; assay type: cell-based
Experimental: (§1) FIG. 1a is a bar graph showing the effects of IB on cell growth in vitro, in terms of normalized cell viability.
(§2) An aggressive rat astrocytoma cell line, RT2, was maintained in vitro. This cell line was used to test 24 compounds at varying concentrations in cytotoxicity and proliferation assays using CCK8 (Dojindo), a tetrazolium salt based assay. Compounds without detrimental effects on viability and growth were tested using the Boyden chamber invasion assay at 48 hours. Compounds were also tested for viability against astrocyte cultures using CCK8. Of these compounds, several were identified as anti-invasive. However, several compounds were toxic to astrocytes in culture and several were cytotoxic and not in fact anti-invasive.

astrocytes = assay: Viability against astrocyte cultures using CCK8; assay type: cell-based; conditions: CCK8, 5 μg/ml
Experimental: as §1, §2

[2] = Pharmacokinetics of free versus liposomal IB (Example 3); assay type: in vivo; conditions: rat, tail vein, 20 mg/kg, Cremaphor formulation
Experimental: FIG. 5 is a chart showing the pharmacokinetics of free versus encapsulated imipramine blue, in terms of plasma concentration (mg/ml) over time (hours).
Animals were injected via tail vein with 20 mg/kg liposomal or free IB. Orbital blood draws were performed at intervals and blood collected, centrifuged, and serum read at 610 nm absorbance for pharmacokinetics. […] For biodistribution, animals were perfused with saline, organs collected, homogenized, and drug extracted with DMSO and read at 610 nm absorbance.
The circulation time of the free imipramine blue was tested in a Cremaphor formulation similar to that of paclitaxel.

HIF2a = conditions: WM35 PKB cells, 5 micromolar, 24 hours; cited from earlier work
glioma cells = assay: Invasion assay at 24 hours, encapsulated versus free drug; assay type: cell-based
Experimental: FIG. 4 is a chart showing the results of an invasion assay at 24 hours, showing invasion (%) over time (24 hours).
An invasion assay was performed at 24 hours. The encapsulated formulation was compared to tree drug in vitro and was still active as an anti-invasive agent. Encapsulation of the compound in liposomes is reproducible and consistent between batched.

[3] = system: RT2 rat astrocytoma cell line; assay: Boyden chamber invasion assay at 48 hours; assay type: cell-based; conditions: RT2 cells, 0.01-5 μg/ml
Experimental: FIG. 1b is a bar graph showing the dose dependent effects of IB on invasion using a Boyden Chamber Assay. […] At concentrations above 20 μg/ml, IB was cytotoxic to cancer, and not just anti-invasive.
as §2
It also is benign to astrocyte co-culture making it safer for delivery to the brain (FIG. 3a). The compound is blue in color with an absorbance at 610 nm making it easily assayable. […] At concentrations above 20 μg/ml, IB was cytotoxic to cancer and not just anti-invasive.

RT2 glioma cells = assay: Actin staining of IB-treated glioma cells; assay type: cell-based, rat; conditions: 24 hours, versus ethanol
Experimental: FIGS. 9A and 9B are photomicrographs showing the results of in vitro treatment of RT2 glioma cells with IB. Cells were treated with ethanol […] or IB […] and stained for actin (red) and nuclei (blue).
The ability of IB to impact invasion capability of glioma cells was tested further in vitro. Cells were treated for 24 hours with either IB dissolved in ethanol or an equivalent volume of ethanol.

[4] = Plasma clearance of free IB versus Nano-IB (Example 6); assay type: in vivo, rat; conditions: non tumor-bearing adult male rats, tail vein, readings over 1 hour
Experimental: Imipramine Blue liposomes were injected via the tail vein into adult male rats (non tumor-bearing). Blood samples were taken via the orbital cavity at different time points after drug administration, plasma separated and analyzed for IB content via absorbance readings on spectrophotometer.

## CCN(CC)c1ccc(C(c2ccc(N(CC)CC)cc2)=c2ccc3c(c2)CCc2ccccc2[N+]=3CCCN(C)C)cc1 [IB, Imipramine Blue]
[1]
  concentration at which IB is cytotoxic to cancer: above 20 μg/ml
[1]; CCK8
  proliferation of RT2 cells: not antiproliferative; also recorded: not particularly cytotoxic or anti-proliferative
[1]; CCK8, at anti-invasive concentrations
  cytotoxicity to RT2 cells: not particularly cytotoxic
astrocytes
  effect on astrocyte culture: benign
[2]
  half-life of free IB: 11 min
[2]; listed as free imipramine blue
  half-life of free IB: around 11 minutes
HIF2a
  inhibition of HIF2a expression: around 90%
Glioma cells
  invasion relative to control (100 percent): around 60%
[3]
  anti-invasive effect: highest anti-invasive properties; also recorded: dose-dependent anti-invasive response
RT2 glioma cells
  effect on cytoskeleton: alters the arrangement of the cytoskeleton
[4]
  half-life of free IB: 12 min

— patent US9220682B2, “Nanocarrier therapy for treating invasive tumors” (Emory University, priority 2009, dated 2015)
